{
  "source": "patent US20260014210A1",
  "about": "“SYMBIOTIC BACTERIUM IN HUMANS FOR PROMOTING HAIR GROWTH AND USE THEREOF” (priority 2022, published 2026)",
  "key": {"ShC4 strain": {"test_system": "ShC4 strain", "assay": "ShC4 antibiotic sensitivity test (antibiotic sensitivity tablets)", "format": "cell-based, Staphylococcus hominis", "conditions": "for Mean diameter (mm) of inhibitory ring: antibiotic content per tablet, 36±1° C., 24 hours, three replicates; for sensitivity of ShC4 strain to the antibiotic (in words): summary of Table 1"}, "[1]": {"test_system": "Dunkin Hartley guinea pigs", "conditions": "200 μL applied on D0, D7, D14, provocation D28; ShC4 2E10 CFU; scored to 72 hours after stimulation"}, "[2]": {"conditions": "standard for penicillin and ampicillin"}, "[3]": {"conditions": "standard for oxacillin and piperacillin"}, "[4]": {"conditions": "standard for tetracycline and minocycline"}},
  "data": [
    {"compound": "CC1(C)S[C@@H]2[C@H](NC(=O)[C@H](N)c3ccccc3)C(=O)N2[C@H]1C(=O)O", "note": "[ampicillin]", "values": [
      {"measurement": "Mean diameter (mm) of inhibitory ring", "setting": "ShC4 strain", "result": 16.69, "unit": "mm"},
      {"measurement": "Sensitivity", "setting": "ShC4 strain; [2]", "result": "R (≤28)"},
      {"measurement": "sensitivity of ShC4 strain to the antibiotic (in words)", "setting": "ShC4 strain", "result": "resistance"}
    ]},
    {"compound": "Cc1onc(-c2ccccc2)c1C(=O)N[C@@H]1C(=O)N2[C@@H]1SC(C)(C)[C@@H]2C(=O)O", "note": "[Oxacillin (OX), Oxacillin]", "values": [
      {"measurement": "Mean diameter (mm) of inhibitory ring", "setting": "ShC4 strain", "result": 29.4, "unit": "mm"},
      {"measurement": "Sensitivity", "setting": "ShC4 strain; [3]", "result": "S (≥18)"},
      {"measurement": "sensitivity of ShC4 strain to the antibiotic (in words)", "setting": "ShC4 strain", "result": "sensitive"}
    ]},
    {"compound": "CN(C)[C@@H]1C(O)=C(C(N)=O)C(=O)[C@@]2(O)C(O)=C3C(=O)c4c(O)cccc4[C@@](C)(O)[C@H]3C[C@@H]12", "note": "[tetracycline]", "values": [
      {"measurement": "Mean diameter (mm) of inhibitory ring", "setting": "ShC4 strain", "result": 25.85, "unit": "mm"},
      {"measurement": "Sensitivity", "setting": "ShC4 strain; [4]", "result": "S (≥19)"}
    ]},
    {"compound": "CCN1CCN(C(=O)N[C@@H](C(=O)N[C@@H]2C(=O)N3[C@@H]2SC(C)(C)[C@@H]3C(=O)O)c2ccccc2)C(=O)C1=O", "note": "[Piperacillin]", "values": [
      {"measurement": "Mean diameter (mm) of inhibitory ring", "setting": "ShC4 strain", "result": 18.86, "unit": "mm"},
      {"measurement": "Sensitivity", "setting": "ShC4 strain; [3]", "result": "S (≥18)"},
      {"measurement": "sensitivity of ShC4 strain to the antibiotic (in words)", "setting": "ShC4 strain", "result": "sensitive"}
    ]},
    {"compound": "CN(C)c1ccc(O)c2c1C[C@H]1C[C@H]3[C@H](N(C)C)C(O)=C(C(N)=O)C(=O)[C@@]3(O)C(O)=C1C2=O", "note": "[minocycline]", "values": [
      {"measurement": "Mean diameter (mm) of inhibitory ring", "setting": "ShC4 strain", "result": 29.33, "unit": "mm"},
      {"measurement": "Sensitivity", "setting": "ShC4 strain; [4]", "result": "S (≥19)"}
    ]},
    {"compound": "cotrimoxazole", "values": [
      {"measurement": "Mean diameter (mm) of inhibitory ring", "setting": "ShC4 strain", "result": 0, "unit": "mm"},
      {"measurement": "sensitivity of ShC4 strain to the antibiotic (in words)", "setting": "ShC4 strain", "result": "resistance"}
    ]},
    {"compound": "Penicillin [Penicillin (P)]", "values": [
      {"measurement": "Mean diameter (mm) of inhibitory ring", "setting": "ShC4 strain", "result": 15.72, "unit": "mm"},
      {"measurement": "Sensitivity", "setting": "ShC4 strain; [2]", "result": "R (≤28)"},
      {"measurement": "sensitivity of ShC4 strain to the antibiotic (in words)", "setting": "ShC4 strain", "result": "resistance"}
    ]},
    {"compound": "2,4-dinitrochlorobenzene [CDNB]", "values": [
      {"measurement": "allergy rate", "setting": "[1]", "result": 100, "unit": "%"}
    ]},
    {"compound": "CC[C@H]1OC(=O)[C@H](C)[C@@H](O[C@H]2C[C@@](C)(OC)[C@@H](O)[C@H](C)O2)[C@H](C)[C@@H](O[C@@H]2O[C@H](C)C[C@H](N(C)C)[C@H]2O)[C@](C)(O)C[C@@H](C)C(=O)[C@H](C)[C@@H](O)[C@]1(C)O", "note": "[erythromycin]", "values": [
      {"measurement": "Mean diameter (mm) of inhibitory ring", "setting": "ShC4 strain", "result": 23.96, "unit": "mm"},
      {"measurement": "Sensitivity", "setting": "ShC4 strain; standard for erythromycin", "result": "S (≥23)"},
      {"measurement": "sensitivity of ShC4 strain to the antibiotic (in words)", "setting": "ShC4 strain", "result": "sensitive"}
    ]}
  ]
}
